The values that follow come from patent US20230212316A1, “IgG EPITOPE PEPTIDES THAT BIND […] AND METHODS OF USE THEREOF” (priority 2021, published 2023).

Experiment [1] concerns serum IgG (rheumatoid factors). Kind of experiment: Peptide ELISA: serum IgG binding to biotinylated IgG1-derived peptides. The following applies: for Serum IgG binding to the peptide compared to controls: FIG. 3; for IgG binding to the peptide: Sjogren's disease subjects previously RF positive versus matched controls, FIG. 9B. Details: species or system human. On the technique in general: An ELISA detects its analyte on a solid surface through an enzyme-linked reagent.

The subject of experiment [2] is serum IgM (rheumatoid factors). The experiment is described as follows: Peptide ELISA: serum IgM binding to biotinylated IgG1-derived peptides. Details: species or system human. The following applies: for IgM binding to the peptide: Sjogren's disease subjects previously RF positive versus matched controls, FIG. 9B; for IgM that binds to the peptide: COVID-19 convalescent subjects versus RA+, RA−, smokers and naïve controls, FIG. 8A.

The next experiment relates to plasma IgG. The following applies: anti-CCP+ subjects who later develop RA compared to anti-CCP− subjects and CCP+ subjects who do not develop RA; FIG. 10B. An excerpt:
Human Subjects: Human subjects research was approved by the University of Wisconsin (UW) Institutional Review Board and complied with the Helsinki Declaration. Most sera were obtained from the UW Rheumatology Biorepository, which includes rheumatoid arthritis, systemic lupus erythematosus, Sjögren's disease (SjD), spondyloarthropathy, and controls (including current and never smokers) collected prior to 2019. Subjects were ≥18 years old. All subjects with rheumatic disease were confirmed to have that disease by a rheumatologist. […] Controls were matched by age and gender and carried none of the following diagnoses: RA, lupus, Sjögren's disease, scleroderma, psoriasis, psoriatic arthritis, ankylosing spondylitis, reactive arthritis, ulcerative colitis, Crohn's disease, multiple sclerosis, type I diabetes, hematologic malignancy, or past COVID-19.
Enzyme Linked Immunosorbent Assay (ELISA): For peptide ELISA, plates were coated with 5 μg/ml streptavidin (Thermo Fisher Scientific) for 1 hour at room temperature (RT) or overnight at 4 degrees Celsius, washed with PBS, then coated with 0.1-1.0 μM of peptide conjugated to biotin at the C terminus (Biomatik, Kitchener, Canada or Peptide2.0, Chantilly, Va., USA) for 1 hour at RT. For IgG Fc ELISA, plates were coated overnight at 4° C. with 10 μg/ml IgG Fc in PBS in 4 forms: treated with PADs in buffer, treated with 0.1M KOCN in dH2O, diluted in citrullination buffer, diluted in dH2O. After washing with PBS, plates were blocked for 1 hour to overnight at RT with 5% non-fat dried milk in 0.2% Tween 20 in PBS (serum ELISA block) or 1% BSA in PBS (mAMPA ELISA block without 0.1% Tween 20). Sera diluted 1:100, 1:200 or 1:2000 in serum ELISA block or 1 μg/m1mAMPAs in mAMPA ELISA block were applied to plates overnight at 4° C. […] After one hour at RT, plates were washed, developed with 3,3′,5,5′-tetramethylbenzidine (Thermo Fisher Scientific), then stopped with 0.18 M sulfuric acid. Plates were read on a FilterMAX F3 (Molecular Devices, San Jose, USA) at 450 and 562, with 562 values subtracted from 450 values for each sample. For each sample, absorbance values for uncoated wells were subtracted from peptide- or Fc-coated wells to exclude non-specific binding, and absorbance values for PAD-containing buffer were subtracted from wells coated with PAD-treated IgG Fc to exclude anti-PAD reactivity.

The subject of the next experiment is plasma IgM. The experiment is described as follows: Pre-clinical RA peptide ELISA: plasma IgM binding to IgG1 peptides. More on the design: species or system human. The conditions noted are these: CCP− controls and anti-CCP+ subjects who do not develop RA imminently compared to anti-CCP+ subjects who do develop RA imminently; FIG. 10A. An excerpt: Subjects were ≥18 years old.

[3] abbreviates: COVID-19 convalescent subjects, 5 weeks post-symptom resolution (n=121).
The mark [4] stands for this setting: Control (non-smoking COVID-19 naïve controls without autoimmune disease, n=54).
Setting [5] is: RA+ (seropositive rheumatoid arthritis subjects, n=31).
Where [6] appears, read: RA− (seronegative rheumatoid arthritis subjects, n=26).

Where no end group is shown, it is not given here. [ ]: non-standard residue; d: D form. Cit = NC(=O)NCCC[C@H](N)C(=O)O

“CPPCPAPELLGGPSV (IgG epitope) [Peptide P01857-109, native peptide from the hinge region of IgG1 starting at position 109]”: the “Serum IgG binding to the peptide compared to controls” value in experiment [1] (anti-CCP+RF+ RA) was “trend towards increased binding”; in experiment [1] (anti-CCP-RF− RA), “no increased binding”; in experiment [1] (anti-SSA+ Sjögren's disease), “significantly increased binding”; in experiment [1] (lupus) it was “but not lupus or spondyloarthropathy serum IgG, had significantly increased binding”; in experiment [1] (spondyloarthropathy), “but not lupus or spondyloarthropathy serum IgG, had significantly increased binding”.
On to “DKTHTCPPCPAPELLG (IgG epitope) [Peptide P01857-104, native IgG1 hinge peptide, position 104]”, for which the “Percent of subjects that would be considered seropositive for IgM antibodies against the peptide using a preliminary cutoff” value (“Percent” for short) in experiment [2] (setting [3]) was found to be 14%; in experiment [2] (setting [4]), 2%; in experiment [2] (setting [5]), 23%; in experiment [2] (setting [6]) it was 12%; in experiment [2] (Smoker (current smokers, n=10)) it was 20%. Besides, the “IgM binding to the peptide” value in experiment [2] is reported as “bound”. Also, in experiment [1], the “IgG binding to the peptide” value is recorded as “bound”.
Turning to “KDTLMISRTPEVTCVV (IgG epitope) [Peptide P01857-131, native IgG1 peptide, position 131]”, the “IgM that binds to the peptide” value in experiment [2] was “increased”. In addition, the “Percent” value in experiment [2] (setting [3]) is on record as 45%; in experiment [2] (setting [4]) it was 2%; in experiment [2] (setting [5]), 0%; in experiment [2] (setting [6]), 0%; in experiment [2] (Smoker (current smokers, n=10)), 0%. The “IgM binding to the peptide” value in experiment [2] is given as “not bound”. Besides, in experiment [1], the “IgG binding to the peptide” value is reported as “not bound”.
On to LAPSSJSTSGGTAALGC [Peptide P01857-11J], for which the “Plasma IgG that binds to the peptide” value in the experiment with plasma IgG is on record as “higher”.
“LTVDKSRWQQGNVFSC (IgG epitope) [Peptide P01857-293, native IgG1 peptide, position 293]”: the “IgM that binds to the peptide” value in experiment [2] is given as “increased”. The “Percent” value in experiment [2] (setting [3]) is listed as 12%; in experiment [2] (setting [4]), 0%; in experiment [2] (setting [5]), 3%; in experiment [2] (setting [6]) it was 0%; in experiment [2] (Smoker (current smokers, n=10)) it was 0%. Further, in experiment [2], the “IgM binding to the peptide” value is reported as “not bound”. Also, in experiment [1] (COVID-19 convalescent subjects versus RA+, RA−, smokers and naïve controls, FIG. 8B), the “IgG that binds to the peptide” value is on record as “increased”. For the same sequence, in experiment [1], the “IgG binding to the peptide” value is given as “not bound”.
On to “LYSJLTVDJSRWQQGNVFS [Peptide P01857-289J]”, for which the “Plasma IgG that binds to the peptide” value in the experiment with plasma IgG was “higher”.
For the sequence “LYSKLTVDKSBWQQGNVFS (LYSKLTVDKS[Cit]WQQGNVFS) [Peptide P01857-289B, citrulline (B)-containing IgG1 peptide, position 289]”, the “Plasma IgM that binds to the peptide” value with plasma IgM is reported as “higher”.
In the case of “RDELTKNQVSLTCLVK (IgG epitope) [Peptide P01857-238, native IgG1 peptide, position 238]”, the “IgM that binds to the peptide” value in experiment [2] is given as “increased”. Moreover, the “Percent” value is 44% in experiment [2] (setting [3]); 0% in experiment [2] (setting [4]); 6% in experiment [2] (setting [5]); 4% in experiment [2] (setting [6]); 0% in experiment [2] (Smoker (current smokers, n=10)). Moreover, the “IgM binding to the peptide” value in experiment [2] is recorded as “not bound”. Also, the “IgG binding to the peptide” value in experiment [1] is “not bound”.
As for “TYICNVNHJPSNTJVDJJVEPJSC [Peptide P01857-80J]”, the “Plasma IgG that binds to the peptide” value with plasma IgG is recorded as “higher”.
Same read-out and setting: the result for YJCJVSNJALPAP [Peptide P01857-202J] reads “higher”.
